The target of one experiment is T1, OhyA wild type (WT) (Elizabethkingia meningoseptica, UniProt C7DLJ6).
T1 construct: His tag with TEV site by the vector name (HISTEV); expressed in transfected cells; host or cells: E. coli BL21 Star (DE3)
In words: Whole cell E. coli biotransformation, hydration of oleic acid and derivatives by OhyA wild type. In kind it is cell-based. Conditions: whole cell E. coli biocatalyst, 2 mM substrate, 30° C., pH 6.0. As for the experimental part: (§1) Free fatty acids were identified and analyzed by gas chromatography-mass spectrometry (GC-MS) and comparison of derived mass fragmentation spectra to authentic standards. A HP-5 column (crosslinked 5% Ph-Me Siloxane; 30 m length, 0.25 mm in diameter and 0.25 μm film thickness) on a Hewlett-Packard 6890 Series II GC equipped with a mass selective detector was used. Sample aliquots of 1 μL were injected in split mode (split ratio 30:1) at 240° C. injector temperature and 290° C. detector temperature with N2 as carrier at a flow rate set to 36 cm s^−1 in constant flow mode. The temperature program was as follows: 100° C. for 1 min, 15° C. min^−1 to 300° C., hold for 5 min. The total run time was 19.33 min. The mass selective detector was operated in a mass range of 50-400 amu at an electron multiplier voltage of 1765 V. Results were evaluated with the GC-MS Data Analysis software (Agilent Technologies, Austria).
(§2) OhyA was recombinantly expressed in E. coli. First, a pre-culture was inoculated with E. coli BL21 Star (DE3) cells harboring pMS470-HISTEV-OhyA wild type enzyme or variants, and was grown in LB supplemented with 100 μg mL^−1 ampicillin at 28° C. and 130 rpm overnight. Main cultures were inoculated to an OD600 of 0.1 in auto induction medium (AIM)—Terrific Broth Base including Trace elements (Formedium, UK) containing 100 μg mL^−1 ampicillin. Recombinant protein was expressed at 28° C. and 130 rpm for 22 h. Cells were harvested by centrifugation for 10 min at 4,400×g and 22° C. and were instantly used for whole cell biotransformation or were frozen at −20° C. until protein purification.
(§3) For bioconversion assays of oleic acid (OA) and OA derivatives, i.e. substrates (1) to (10), 50 OD600 units of thus prepared cells, which are corresponding to a cell dry weight of 50 mg, were resuspended in 50 mM HEPES, pH 6.0, supplemented with 100 mM glucose and 0.2 mM FAD in Pyrex® glass culture tubes (Corning, N.Y.). Biotransformation at 1 mL scale were started by adding substrate to a final concentration of 2 mM from an ethanolic stock solution (100 mM). n-pentadecanoic acid (1 mM) was used as internal standard. The reactions were conducted in the presence of 2% (v/v) of ethanol as co-solvent at 30° C. and shaking at 150 rpm at a defined angle of the Pyrex® tubes (55°). Biotransformation were performed for 22 h or 96 h. The assays were quenched by acidification to pH 2.0 with 0.12 M HCl, and fatty acid derivatives were extracted twice with 2 mL of ethyl acetate while agitating on a Vibrax VXR basic shaker (IKA, Germany) for 30 min. The suspension was centrifuged for 5 min at 2,900×g and 22° C. to improve the separation of the phases. Combined organic phases were concentrated under a N2 stream. Fatty acid derivatives were silylated with 10 μL of pyridine and 50 μL of N,O-bis(trimethylsilyl)trifluoroacetamide (BSTFA). After incubation for 30 min at 500 rpm, extracts were diluted with 200 μL of ethyl acetate and analyzed by GC-MS. […]

The target in a further experiment is T2, OhyA Q265A/T436A/N438A (Elizabethkingia meningoseptica, UniProt C7DLJ6, N438A/Q265A/T436A).
T2 construct: His tag with TEV site by the vector name (HISTEV); expressed in transfected cells; host or cells: E. coli BL21 Star (DE3)
T2 sequence (C7DLJ6 whole entry Q265A/T436A/N438A): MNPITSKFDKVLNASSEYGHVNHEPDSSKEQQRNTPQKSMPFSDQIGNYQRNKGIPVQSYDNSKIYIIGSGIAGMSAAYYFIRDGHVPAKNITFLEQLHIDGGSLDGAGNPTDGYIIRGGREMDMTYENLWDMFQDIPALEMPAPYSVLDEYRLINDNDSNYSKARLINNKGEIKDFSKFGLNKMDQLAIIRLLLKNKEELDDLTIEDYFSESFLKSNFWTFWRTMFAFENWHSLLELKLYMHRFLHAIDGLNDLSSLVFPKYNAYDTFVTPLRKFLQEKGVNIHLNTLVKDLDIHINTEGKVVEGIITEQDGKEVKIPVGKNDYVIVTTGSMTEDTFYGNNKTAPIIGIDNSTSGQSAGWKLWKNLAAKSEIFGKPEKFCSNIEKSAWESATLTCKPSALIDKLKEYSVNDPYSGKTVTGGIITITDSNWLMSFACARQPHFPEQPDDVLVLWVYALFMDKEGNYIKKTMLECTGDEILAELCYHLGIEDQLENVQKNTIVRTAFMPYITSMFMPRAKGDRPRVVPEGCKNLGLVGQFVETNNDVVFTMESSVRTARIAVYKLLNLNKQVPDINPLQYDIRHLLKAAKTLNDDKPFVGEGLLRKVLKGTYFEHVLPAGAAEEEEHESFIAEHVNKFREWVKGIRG
The experiment can be described thus: Whole cell E. coli biotransformation, hydration of oleic acid and derivatives by mutant OhyA Q265A/T436A/N438A. In kind it is cell-based. Conditions: for e.e. of hydrated product: abs. conf. at C-10: R, table does not separate WT and mutant; for Apparent hydration activity normalized for biomass, OhyA Q265A/T436A/N438A: whole cell E. coli biocatalyst, 2 mM substrate, 30° C., pH 6.0; for relative hydration activity compared to wt-OhyA: OhyA Q265A/T436A/N438A versus wt-OhyA. As for the experimental part: as §1, §2, §3

Experiment [1] has as its target oleate hydratase from Elizabethkingia meningoseptica (OhyA, EC 4.2.1.53) (Elizabethkingia meningoseptica, UniProt C7DLJ6). Conditions: wild-type OhyA, without co-factor recycling; cited from earlier work.
The target in a further experiment is T3, OhyA Q265A/N438A (Elizabethkingia meningoseptica, UniProt C7DLJ6, N438A/Q265A).
T3 construct: His tag with TEV site by the vector name (HISTEV); expressed in transfected cells; host or cells: E. coli BL21 Star (DE3)
T3 sequence (C7DLJ6 whole entry Q265A/N438A): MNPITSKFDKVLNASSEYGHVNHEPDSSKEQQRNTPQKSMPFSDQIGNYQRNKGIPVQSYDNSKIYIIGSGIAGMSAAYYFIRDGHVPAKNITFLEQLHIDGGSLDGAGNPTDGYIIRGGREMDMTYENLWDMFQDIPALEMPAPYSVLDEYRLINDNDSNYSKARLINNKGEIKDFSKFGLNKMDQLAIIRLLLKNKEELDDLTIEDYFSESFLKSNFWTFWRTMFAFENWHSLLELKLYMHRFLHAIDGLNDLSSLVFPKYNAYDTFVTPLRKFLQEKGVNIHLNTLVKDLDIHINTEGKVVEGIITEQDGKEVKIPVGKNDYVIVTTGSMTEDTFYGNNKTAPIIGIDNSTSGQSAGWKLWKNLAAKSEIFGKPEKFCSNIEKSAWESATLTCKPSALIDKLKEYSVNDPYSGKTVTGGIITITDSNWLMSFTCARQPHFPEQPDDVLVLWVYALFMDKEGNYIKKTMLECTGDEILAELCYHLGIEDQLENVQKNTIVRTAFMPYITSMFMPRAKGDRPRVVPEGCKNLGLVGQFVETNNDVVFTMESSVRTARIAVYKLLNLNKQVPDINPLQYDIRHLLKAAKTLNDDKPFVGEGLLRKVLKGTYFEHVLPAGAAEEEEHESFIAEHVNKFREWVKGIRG
The experiment can be described thus: Bioconversion with modified OhyA variant Q265A/N438A. It is filed as cell-based. Conditions: OhyA Q265A/N438A in bioconversions. As for the experimental part: as §2
For bioconversion assays of oleic acid (OA) and OA derivatives, i.e. substrates (1) to (10), 50 OD600 units of thus prepared cells, which are corresponding to a cell dry weight of 50 mg, were resuspended in 50 mM HEPES, pH 6.0, supplemented with 100 mM glucose and 0.2 mM FAD in Pyrex® glass culture tubes (Corning, N.Y.). Biotransformation at 1 mL scale were started by adding substrate to a final concentration of 2 mM from an ethanolic stock solution (100 mM). n-pentadecanoic acid (1 mM) was used as internal standard. […] After incubation for 30 min at 500 rpm, extracts were diluted with 200 μL of ethyl acetate and analyzed by GC-MS.

Experiment [2] addresses T4, mutant OhyA Q265A/T436A/N438A (Elizabethkingia meningoseptica, UniProt C7DLJ6, N438A/Q265A/T436A).
T4 construct: His tag with TEV site by the vector name (HISTEV); made in house; host or cells: E. coli BL21 Star (DE3)
The experiment can be described thus: Anaerobic in vitro hydration with purified OhyA after reduction of the FAD cofactor. In kind it is biochemical. Conditions: purified enzyme, reduced FAD, overnight incubation, wt-OhyA compared with mutant. The method, then:
For purification of the recombinant OhyA, cell pellets were resuspended in 50 mM HEPES, pH 7.4, containing 10 mM imidazole. Cells were lysed by ultrasonication for 4 min with a Sonifier® 250 (Branson, Danbury, Conn.) setting the duty cycle to 80% and the output control to level 8. Cell free extract (CFE) was separated from the total cell lysate (TCL) by centrifugation for 35 min at 48,300×g and 4° C., and was filtered through 0.22 μm filters (Millipore, Bedford, Mass.) prior to loading it onto a pre-equilibrated self-packed Ni-NTA affinity chromatography column (GE Healthcare, United Kingdom). Prior to any further analyses, purified OhyA was incubated with a 10-fold molar excess of FAD over night at 4° C. Unbound FAD was removed from the protein aliquot by buffer exchange via PD-10 desalting columns (GE Healthcare, United Kingdom) according to the recommended protocol.
For reduction of the enzyme-bound flavin cofactor, wt-OhyA and mutant Q265A/T436A/N438A were diluted in 50 mM HEPES, pH 7.4, containing 50 mM NaCl, 5 mM EDTA, 1 μM 5-deazariboflavin and 4 μM methyl viologen to give an absorption of approximately 0.2 AU at 440 nm. The solution was transferred to a cuvette and oxygen was removed by incubation for at least 2 h in a glove box. Afterwards, the cofactor was reduced by anaerobic photoreduction or chemical reduction with dithiothreitol (DTT). […]

Bounds are passed on as bounds.

T1 sequence (C7DLJ6 whole entry): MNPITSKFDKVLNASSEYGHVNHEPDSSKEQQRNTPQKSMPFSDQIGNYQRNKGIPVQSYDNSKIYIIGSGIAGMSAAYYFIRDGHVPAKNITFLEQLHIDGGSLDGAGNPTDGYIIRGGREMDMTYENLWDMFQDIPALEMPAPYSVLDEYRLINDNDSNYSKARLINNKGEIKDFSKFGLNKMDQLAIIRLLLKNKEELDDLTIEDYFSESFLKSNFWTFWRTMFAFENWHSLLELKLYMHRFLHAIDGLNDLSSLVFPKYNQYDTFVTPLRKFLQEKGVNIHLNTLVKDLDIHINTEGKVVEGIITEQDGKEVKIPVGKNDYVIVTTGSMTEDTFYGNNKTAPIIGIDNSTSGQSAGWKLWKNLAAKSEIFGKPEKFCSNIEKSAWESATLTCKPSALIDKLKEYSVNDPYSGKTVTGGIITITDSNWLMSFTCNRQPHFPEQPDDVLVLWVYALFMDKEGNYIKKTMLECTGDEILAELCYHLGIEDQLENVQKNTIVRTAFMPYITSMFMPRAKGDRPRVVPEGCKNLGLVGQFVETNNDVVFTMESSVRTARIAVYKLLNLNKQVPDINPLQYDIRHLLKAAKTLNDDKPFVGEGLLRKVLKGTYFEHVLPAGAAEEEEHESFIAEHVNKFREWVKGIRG
Sequence of oleate hydratase from Elizabethkingia meningoseptica (OhyA, EC 4.2.1.53) (C7DLJ6 whole entry): as above
T4 sequence (C7DLJ6 whole entry Q265A/T436A/N438A): as the sequence (C7DLJ6 whole entry Q265A/T436A/N438A) above

Take `CCCCCCCC/C=C\CCCCCCCC(=O)O` [Entry 1, oleic acid]: the “Apparent hydration activity normalized for biomass, OhyA WT” value at OhyA wild type (WT) is given as 26.3 ± 0.2 mU g^−1 CDW. In addition, on OhyA Q265A/T436A/N438A, the “e.e. of hydrated product” value is recorded as greater than 99% and the “Apparent hydration activity normalized for biomass, OhyA Q265A/T436A/N438A” value came out at 28.4 ± 0.3 mU g^−1 CDW. For the same compound, the “enantiomeric excess (ee) of (R)-10-hydroxy stearic acid” value in experiment [1] is reported as “at least 98%”.

In the case of `CCCCCCCC/C=C\CCCCCCCCN` [Entry 2, oleyl amine], the “e.e. of hydrated product” value at OhyA Q265A/T436A/N438A is reported as greater than 99%.

With `CCCCCCCC/C=C\CCCCCCCC(N)=O` [Entry 3, oleamide], the “Apparent hydration activity normalized for biomass, OhyA WT” value on OhyA wild type (WT) amounted to 11.1 ± 0.7 mU g^−1 CDW. Also, at OhyA Q265A/T436A/N438A, the “e.e. of hydrated product” value is reported as greater than 99% and the “Apparent hydration activity normalized for biomass, OhyA Q265A/T436A/N438A” value is on record as 10.7 ± 0.3 mU g^−1 CDW.

For the compound `CCCCCCCC/C=C\CCCCCCCC(=O)NO` [Entry 4, N-hydroxy oleamide], at OhyA wild type (WT), the “Apparent hydration activity normalized for biomass, OhyA WT” value worked out at 3.4 ± 0.7 mU g^−1 CDW. At OhyA Q265A/T436A/N438A, the “relative hydration activity compared to wt-OhyA” value is given as “at least 5 fold”; the “e.e. of hydrated product” value is on record as greater than 99%; the “Apparent hydration activity normalized for biomass, OhyA Q265A/T436A/N438A” value turned out to be 13.4 ± 2.5 mU g^−1 CDW. Moreover, on OhyA Q265A/N438A, the “enhanced relative hydration activity” value was “at least 5 fold”.

As for `CCCCCCCC/C=C\CCCCCCCCO` [Entry 5, oleyl alcohol], on OhyA wild type (WT), the “Apparent hydration activity normalized for biomass, OhyA WT” value came to 8.4 ± 2.1 mU g^−1 CDW. Moreover, at OhyA Q265A/T436A/N438A, the “relative hydration activity compared to wt-OhyA” value was “at least 2 fold”; the “e.e. of hydrated product” value was greater than 99%; the “Apparent hydration activity normalized for biomass, OhyA Q265A/T436A/N438A” value was determined as 15.5 ± 1.0 mU g^−1 CDW.

For `CCCCCCCC/C=C\CCCCCCCC(=O)OC` [Entry 6, methyl oleate], the “Apparent hydration activity normalized for biomass, OhyA WT” value at OhyA wild type (WT) is 0.3 ± 0.1 mU g^−1 CDW. Moreover, on OhyA Q265A/T436A/N438A, the “relative hydration activity compared to wt-OhyA” value came to 6 fold; the “e.e. of hydrated product” value was greater than 99%; the “Apparent hydration activity normalized for biomass, OhyA Q265A/T436A/N438A” value is listed as 2.5 ± 0.2 mU g^−1 CDW. In addition, the “peak at the expected retention time of the hydrated product (GC-MS)” value in experiment [2] is given as “only in the case of the variant”.

Take `CCCCCCCC/C=C\CCCCCCCC(=O)OCC` [Entry 7, ethyl oleate]: the “Apparent hydration activity normalized for biomass, OhyA WT” value on OhyA wild type (WT) was found to be 0.2 ± 0.1 mU g^−1 CDW. For the same compound, at OhyA Q265A/T436A/N438A, the “relative hydration activity compared to wt-OhyA” value is listed as 6 fold; the “e.e. of hydrated product” value is on record as greater than 99%; the “Apparent hydration activity normalized for biomass, OhyA Q265A/T436A/N438A” value was determined as 1.7 ± 0.1 mU g^−1 CDW.

For `CCCCCCCC/C=C\CCCCCCCC(=O)OC(C)C` [Entry 8, i-propyl oleate], the “Apparent hydration activity normalized for biomass, OhyA WT” value at OhyA wild type (WT) was found to be 0.1 ± 0.1 mU g^−1 CDW. For the same compound, on OhyA Q265A/T436A/N438A, the “e.e. of hydrated product” value is reported as greater than 99% and the “Apparent hydration activity normalized for biomass, OhyA Q265A/T436A/N438A” value amounted to 1.5 ± 0.1 mU g^−1 CDW.

As for `CCCCCCCC/C=C\CCCCCCCC(=O)OCCC` [Entry 9, n-propyl oleate], the “Apparent hydration activity normalized for biomass, OhyA WT” value on OhyA wild type (WT) is listed as 0.2 ± 0.1 mU g^−1 CDW. Besides, on OhyA Q265A/T436A/N438A, the “relative hydration activity compared to wt-OhyA” value came to 20 fold; the “e.e. of hydrated product” value is given as greater than 99%; the “Apparent hydration activity normalized for biomass, OhyA Q265A/T436A/N438A” value is reported as 0.9 ± 0.1 mU g^−1 CDW.

On to `CCCCCCCC/C=C\CCCCCCCC(=O)OCCCC` [Entry 10, n-butyl oleate], for which the “Apparent hydration activity normalized for biomass, OhyA WT” value at OhyA wild type (WT) stood at 0.1 ± 0.1 mU g^−1 CDW. For the same compound, on OhyA Q265A/T436A/N438A, the “e.e. of hydrated product” value is given as greater than 99% and the “Apparent hydration activity normalized for biomass, OhyA Q265A/T436A/N438A” value turned out to be 0.8 ± 0.1 mU g^−1 CDW.

Values taken from patent US20210222144A1, “SELECTIVE HYDRATION OF OLEIC ACID DERIVATIVES” (priority 2018, published 2021).
